Assay [1] concerns MSSA and MRSA (Staphylococcus aureus). Kind of assay: MIC, in vitro assay of MSSA and MRSA (2-fold microdilution). Particulars: for MIC: Staphylococcus aureus. Format: cell-based. (In general: Broth dilution looks for growth in wells or tubes with falling amounts of substance.)
For assay [2] the test system is unchanged. Kind of assay: MBC, in vitro assay of MSSA and MRSA. Format: cell-based.
Assay [3] deals with the cells. The conditions noted are these: Chen, Planta Med. 60 (1994), cited from earlier work; for Wound healing properties / healing effects: Ecuadorian sap; for Effect on cell proliferation: compounds obtained through extraction.
In assay [4] the test system is S. pyogenes. The assay can be described thus: MIC against S. pyogenes (Erythromycin and Tetracycline resistant strains). Format: cell-based. The conditions noted are these: Streptococcus pyogenes, antibiotic screening. As to the method:
Tables 14 and 15 show an assay whose setup is same as what was used for screening S. aureus and P. aeruginosa (i.e. 2-fold microdilution). The 20 strains of S. pyogenes assayed were selected from the two rounds of antibiotic screening to identify Erythromycin and Tetracycline resistant strains. […] For this feasibility study, AB-101 Lot 1 and Lot 2 was used. P. aeruginosa ATCC 27853 was tested as a positive control for AB-101 activity.

Data on seven molecules can be found in US20220280584A1, “CROTON LECHLERI COMPOSITIONS FOR USE IN TREATING BLEEDING, WOUNDS AND INFECTIONS” (priority 2019, published 2022).

Values after ≈ are worked out from the molar mass of the structure shown.

As to `COc1ccc2c(=O)oc3c(OC)cc(CCN(C)C)c4c(=O)oc1c2c34` [Taspine], the “Activity against MSSA and MRSA (MIC)” value in assay [1] (purified extract of taspine, highest concentration tested 50% relative to AB-101 = 10 μg/mL) is given as “does not have activity”. Moreover, the “MIC (% relative to amount in AB-101)” value in assay [1] (strain ATCC 29213, QC control, 50% = 10 μg/mL taspine) is on record as >50 % relative to amount in AB-101. The “Activity against MSSA and MRSA (MBC)” value in assay [2] (purified extract of taspine) is on record as “does not have activity”. For the same molecule, the “MBC (% relative to amount in AB-101)” value in assay [2] (strain ATCC 29213, QC control) was >50 % relative to amount in AB-101. In assay [3], the “Wound healing properties / healing effects” value is listed as “little healing effects”.
Consider `C/C(=C\C(=O)OCCCCCCCCC(=O)O)C[C@@H]1OC[C@H](C[C@@H]2O[C@H]2[C@@H](C)[C@H](C)O)[C@@H](O)[C@H]1O` [Mupirocin], for which the MIC in assay [1] (strain 1674606, MupirocinR, MSSA) was above 256 µg/mL; in assay [1] (strain 1674607, MupirocinR, MRSA) it was above 256 µg/mL; in assay [1] (strain CDC 227, MupirocinS, MRSA), 0.25 to 0.5 µg/mL (≈ 0.499 to 0.999 µM); in assay [1] (strain CDC 462, MupirocinS, MSSA) it was at most 0.25 µg/mL; in assay [1] (strain CDC 464, MupirocinS, MSSA), at most 0.25 µg/mL; in assay [1] (strain CDC 484, MupirocinS, MSSA), at most 0.25 µg/mL. Also, the minimal inhibitory concentration (MIC) in assay [1] (strain CDC 485, MupirocinS, MSSA) is at most 0.25 µg/mL.
With `COc1ccc([C@H]2Oc3c(OC)cc(CCCO)cc3[C@@H]2CO)cc1OC` [dimethylcedrusin], the “Wound healing properties / healing effects” value in assay [3] is recorded as “little healing effects”.
For the molecule `Oc1cc(O)c2c(c1)O[C@H](c1cc(O)c(O)c(O)c1)[C@@H](O)C2` [Gallocatechin], the “Effect on cell proliferation” value in assay [3] is “slightly stimulating”.
In the case of Catechin, the “Effect on cell proliferation” value in assay [3] is recorded as “little effect”.
For the molecule `Oc1cc(O)c2c(c1)O[C@H](c1cc(O)c(O)c(O)c1)[C@H](O)C2` [Epigallocatechin], the “Effect on cell proliferation” value in assay [3] is given as “slightly stimulating”.
On to `CN[C@H](CC(C)C)C(=O)N[C@H]1C(=O)N[C@@H](CC(N)=O)C(=O)N[C@H]2C(=O)N[C@H]3C(=O)N[C@H](C(=O)N[C@H](C(=O)O)c4cc(O)cc(O)c4-c4cc3ccc4O)[C@H](O)c3ccc(c(Cl)c3)Oc3cc2cc(c3O[C@@H]2O[C@H](CO)[C@@H](O)[C@H](O)[C@H]2O[C@H]2C[C@](C)(N)[C@H](O)[C@H](C)O2)Oc2ccc(cc2Cl)[C@H]1O` [Vancomycin], for which the MIC in assay [4] (S. pyogenes strain 1744264) is 0.5 µg/mL (≈ 0.345 µM); in assay [4] (S. pyogenes strain 1744265), 8 µg/mL (≈ 5.52 µM); in assay [4] (S. pyogenes strain 1744271), 0.5 µg/mL (≈ 0.345 µM); in assay [4] (S. pyogenes strain 1744272), 1 µg/mL (≈ 0.69 µM); in assay [4] (S. pyogenes strain 1744275) it was 0.25 to 0.5 µg/mL (≈ 0.173 to 0.345 µM); in assay [4] (S. pyogenes strain 1744277), 4 µg/mL (≈ 2.76 µM). The MIC in assay [4] (S. pyogenes strain 1744285), in assay [4] (S. pyogenes strain 2065754), in assay [4] (S. pyogenes strain 2065755), in assay [4] (S. pyogenes strain 2065756), in assay [4] (S. pyogenes strain 2065757) and in assay [4] (S. pyogenes strain 2065759) was 0.5 µg/mL (≈ 0.345 µM) in each case. For the same molecule, the MIC in assay [4] (S. pyogenes strain 2065760) was 0.5 µg/mL (≈ 0.345 µM); in assay [4] (S. pyogenes strain 2065761), 0.5 µg/mL (≈ 0.345 µM); in assay [4] (S. pyogenes strain 2065762), 0.5 µg/mL (≈ 0.345 µM); in assay [4] (S. pyogenes strain 2065763), 0.5 µg/mL (≈ 0.345 µM); in assay [4] (S. pyogenes strain 2065765), 2 to 4 µg/mL (≈ 1.38 to 2.76 µM); in assay [4] (S. pyogenes strain 20658748), 0.25 to 0.5 µg/mL (≈ 0.173 to 0.345 µM). In addition, the MIC in assay [4] (S. pyogenes strain 20658749) and in assay [4] (S. pyogenes strain 20658750) was 0.5 µg/mL (≈ 0.345 µM) each time.

The MIC is the smallest concentration in the dilution series that meets the test's criterion for growth inhibition. High values mean a less susceptible organism, low ones a more susceptible organism.
